These results are taken from patent US7388008B2, “Lysine based compounds” (priority 2004, dated 2008).

The data set is described as follows: Bioavailability: plasma concentration after single oral dose in rats. The data set is classed as in vivo, male Sprague-Dawley rats. As to conditions: for AUC: 50 mg/Kg po, rat plasma; for Delivery of parent drug (PL-100, PL-337) compared to non-aqueous formulations of PL-100 and PL-337: aqueous dosing; for Delivery of parent drug (PL-100, PL-337) compared to non-aqueous formulations of PL-100 and PL-337 / Administered compound detected in the blood samples: 50 mg/kg po, rat; for Administered compound detected in the blood samples: delivered as aqueous solutions. On the procedure:
To assess the extent of in vivo cleavage of the phosphate group from the putative compounds, PL-100, PL-462 (based on PL-100), PL-337 and PL-515 (based on PL-337) compounds were administered po (50 mg/kg) to male Sprague-Dawley rats and their plasma concentration measured at different time intervals post-administration. All test articles (PL-100, PL-462, PL-337 and PL-515) were prepared in different vehicle at the final concentration of 25 mg/mL. The vehicle composition is as follows: (1) 20% ethanol; 50% propylene glycol; 0.05% w/v Tween 20 and water (Mix); (2) PBS buffer (PBS). Test articles were administered to male Sprague-Dawley rats at a single oral dose of 50 mg/kg. Each article was tested in three rats. Blood samples (0.2–0.3 mL) were collected at the post-dose time of 10, 20, 40, 60, 120, 180 and 360 minutes. The harvested blood was centrifuged to isolate plasma. The resulting plasma was separated and stored at −70° C. Plasma samples together with standards and quality control samples were treated to precipitate proteins, then analyzed by HPLC-MS, for the presence of PL-462, PL-100, PL-515 and PL-337.

Setting [1] is: vehicle Mix (20% ethanol; 50% propylene glycol; 0.05% w/v Tween 20 and water).
The mark [2] stands for this setting: vehicle PBS, parent drug (PL-100 or PL-337) detected.

Under setting [1], `COC(=O)N[C@H](C(=O)NCCCC[C@@H](CO)N(CC(C)C)S(=O)(=O)c1ccc(N)cc1)C(c1ccccc1)c1ccccc1` [PL-100, (1S,5S)-(1-{5-[(4-amino-benzenesulfonyl)-isobutyl-amino]-6-hydroxy-hexylcarbamoyl}-2,2-diphenyl-ethyl)-carbamic acid methyl ester] showed an AUC of 0.675 μg/hr * ml.
Take `COC(=O)N[C@H](C(=O)NCCCC[C@@H](CO)N(CC(C)C)S(=O)(=O)c1ccc(N)c(F)c1)C(c1ccccc1)c1ccccc1` [PL-337, (1-{5-[(4-amino-3-fluoro-benzenesulfonyl)-isobutyl-amino]-6-hydroxy-hexylcarbamoyl}-2,2-diphenyl-ethyl)-carbamic acid methyl ester]: the AUC under setting [1] is 1.180 μg/hr * ml.
As for `COC(=O)N[C@H](C(=O)NCCCC[C@@H](COP(=O)(O)O)N(CC(C)C)S(=O)(=O)c1ccc(N)cc1)C(c1ccccc1)c1ccccc1.[Na]` [PL-462, (1S,5S)-(1-{5-[(4-amino-benzenesulfonyl)-isobutyl-amino]-6-phosphonooxy-hexylcarbamoyl}-2,2-diphenyl-ethyl)-carbamic acid methyl ester sodium salt], the “Delivery of parent drug (PL-100, PL-337) compared to non-aqueous formulations of PL-100 and PL-337” value is “equivalent to slightly superior”; the “Administered compound detected in the blood samples” value was “None”. Besides, the AUC under setting [2] worked out at 0.816 μg/hr * ml.
For `COC(=O)N[C@H](C(=O)NCCCC[C@@H](COP(=O)(O)O)N(CC(C)C)S(=O)(=O)c1ccc(N)c(F)c1)C(c1ccccc1)c1ccccc1` [PL-515, (1S,5S)-(1-{5-[(4-amino-3-fluoro-benzenesulfonyl)-isobutyl-amino]-6-phosphonooxy-hexylcarbamoyl}-2,2-diphenyl-ethyl)-carbamic acid methyl ester], the “Delivery of parent drug (PL-100, PL-337) compared to non-aqueous formulations of PL-100 and PL-337” value is “equivalent to slightly superior”; the “Administered compound detected in the blood samples” value is given as “None”. Moreover, the AUC under setting [2] amounted to 1.075 μg/hr * ml.
